# Data: US8337835B2, “Use of an endogenous ligand for peroxisome proliferator activated receptor alpha to treat liver disorders” (priority 2009, dated 2012)
# Test system: PPARα target gene acyl CoA oxidase
# Experiment: Establishing conditions (dose, rate) for portal vein infusion
# Assay type: in vivo, mouse
# Experimental: We therefore extrapolated the doses in mice taking into account the direct intraportal route, and tested doses ranging from 0.1 mg/day to 10 mg/day based on a 25 g mouse. […] Optimal dosing frequency was determined based on kinetic data obtained by injection of ^14C-labeled 16:0/18:1-GPC (American Radiochemicals, St. Louis) into the portal vein of […] mice as shown in FIG. 12. Following a single injection into the portal vein (1.9 μCi/mouse), total counts from both cytoplasmic and nuclear fractions were obtained (FIG. 12A). Using standard pharmacokinetic equations (Hardman et al., 2001), a dosing interval of 8.7 hours was calculated, indicating an optimal dosing frequency of three times a day.
smiles,measurement,setting,value
"CCCCCCCC/C=C\CCCCCCCC(=O)O[C@H](COC(=O)CCCCCCCCCCCCCCC)COP(=O)([O-])OCC[N+](C)(C)C [16:0/18:1-GPC, 1-palmitoyl-2-oleoyl-sn-glycerol-3-phosphocholine]",lowest dose causing increased expression of the PPARα target gene acyl CoA oxidase,"intraportal, rapid infusion (<1 min), mice",10 mg/kg
same,solubility of infusate,larger doses and slower infusion rates,poor solubility
same,lethality,"larger doses and slower infusion rates, portal vein",death due to portal vein thrombosis
